Source: article PMC12040169 (PLOS Biology, 2025)

Assay: in vitro
Settings: human, hela cells, % viability

| SMILES | viability at 28.5 h, 10 µM |
| --- | --- |
| Cc1cc(C(F)(F)F)nn1CCCNC(=O)c1cc(-c2ccccc2)nc2ccccc12 [CBK267755] | 85% |
| Nc1nc2c(nc(O)n2[C@@H]2O[C@H](CO)[C@H](O)C2O)c(=O)[nH]1 (stereo partly shown) [CBK201297] | 88.5% |
| CCS(=O)(=O)Nc1ccc(C2=NN(S(=O)(=O)c3ccc(F)cc3)C(c3ccccc3C)C2)cc1 (stereo not shown) [CBK269161] | 103% |
| Cc1ccc(S(N)(=O)=O)cc1NC(=O)Cc1ccccc1 [CBK024413] | 86.7% |
| O=C(O)C1CC(O)CN1S(=O)(=O)c1ccc([N+](=O)[O-])cc1 (stereo not shown) [CBK266158] | 100% |
| Cc1nc(C)c(-c2csc(CC(C)n3cc(Cl)cn3)n2)o1 (stereo not shown) [CBK304710] | 106% |
| CCCOC1CCCN(Cc2cn(CC(N)=O)c3ccccc23)C1 (stereo not shown) [CBK282796] | 105% |
| O=C1CCc2cc(S(=O)(=O)Nc3cccc(-c4ccc(F)cc4)c3)ccc2N1 [CBK286371] | 102% |
| COc1cc2c(cc1NS(=O)(=O)N1CCCCC1)oc1ccccc12 [CBK268355] | 85.8% |
| COc1ccc(C(CNCC(O)COc2cccc3c2CCCC3)c2ccccc2)cc1 (stereo not shown) [CBK028144] | 105% |
| COC(=O)c1sc(-c2ccsc2)cc1N [CBK006256] | 91.8% |
| O=C(Cc1c[nH]c2ccccc12)Nc1cnc(-c2cccc(OC(F)(F)F)c2)c(-c2cccnc2)n1 [CBK036863] | 108% |
| O=C1CCCN1CCOc1nccnc1/C=C/c1ccccc1 [CBK106875] | 92.4% |
| O=C(O)CC1S/C(=N/N=C/c2ccco2)NC1=O (stereo not shown) [CBK261371] | 93.7% |
| Cc1cc2nc(-c3cc(NC(=O)/C=C/c4cccc([N+](=O)[O-])c4)ccc3O)oc2cc1C [CBK263438] | 94.1% |
| Cc1c(C)n(CC(O)CNCc2ccco2)c2ccccc12 (stereo not shown) [CBK263970G] | 97% |
| O=C(O)c1ccc(CSc2nnc(-c3ccccc3)n2Cc2ccccc2)cc1 [CBK265013] | 114% |
| O=C(Cc1c[nH]c2ccccc12)N1CCC2(CCCN(C(=O)c3cccc(C(F)(F)F)c3)C2)C1 (stereo not shown) [CBK131578] | 97.2% |
| O=C(c1cnc2ccccc2n1)N1CCN(CCc2ccccc2)CC1 [CBK200214] | 91% |
| Cc1ccc(NC(=O)OCCN2CCN(C)CC2)c(C)n1 [CBK200135] | 106% |
| COc1ccc(NC(=O)c2ccc3nsnc3c2)cc1 [CBK263160] | 92.6% |
| O=C(NCCc1ccccc1)c1nc(-c2ccncc2)cs1 [CBK288604] | 70% |

| SMILES | viability at 28.5 h, 10 µM |
| --- | --- |
| FC(F)(F)c1cccc(SCc2ccc(Cl)cc2)n1 [CBK107197] | 91.9% |
| c1cnc2c(c1)cc([C@H]1CCCO1)n2CCN1CCCC1 [CBK282289] | 91.9% |
| CN1CCN(c2ccccc2NC(=S)NC(=O)c2ccc(N3CCCCC3)c([N+](=O)[O-])c2)CC1 [CBK268520C] | 121% |
| CN1C[C@@H](NS(C)(=O)=O)C[C@H]1c1nc(-c2ccc3ccccc3c2)no1 [CBK288859] | 106% |
| CCCn1c(SCC(=O)N2CCc3ccccc32)nc(O)cc1=O [CBK305843] | 95.4% |
| O=C(CSc1ccc2nnc(-c3ccccc3)n2n1)Nc1nccs1 [CBK287516] | 98.6% |
| CC[C@H]1CN(C(=O)c2cccnc2)CC[C@H]1CC(=O)N1CCC(C(N)=O)CC1 [CBK288772] | 104% |
| Cc1sc2nc(C)n(C3CCNCC3)c(=O)c2c1C [CBK282421] | 113% |
| O=C1CC(=O)N(Cc2ccc(F)cc2)C(=O)N1 [CBK291156] | 95.2% |
| O=c1[nH]c2ccccc2n1CCCN1CCC[C@@H]1CN1CCCC1 [CBK137111T] | 93.5% |
| CC(C)(C)c1cc(-c2nc3ccccc3[nH]2)c(O)c(-c2nc3ccccc3[nH]2)c1 [CBK266084] | 90% |
| CCN(CC)c1c(C)nc2ccc(C(=O)NCc3ccc(N(C)C)cc3)cn12 [CBK145961] | 92.7% |
| COc1cc(C=CC(=O)O)ccc1OCC(=O)NCC(C)C [CBK296721] | 107% |
| Cc1cc(NC(=O)CC2CCCCC2)nc2c1c(=O)oc1ccccc12 [CBK291151] | 90.6% |
| CC(C)C(=O)N1CCC(n2nc(-c3ccco3)ccc2=O)CC1 [CBK284244] | 83.8% |
| CCCn1nnc(NCc2ccc(Cl)cc2)n1 [CBK288089] | 97.2% |
| CCOc1ccc(-n2c(C)cc(C(=O)NS(=O)(=O)c3ccc(C)cc3)c2C)cc1 [CBK296084] | 90.1% |
| NS(=O)(=O)c1ccc(-c2nc(-c3ccccc3)no2)cc1 [CBK269957] | 87.8% |
| O=C(Nc1sc2c(c1CN1CCCCCC1)CCCC2)c1ccccc1 [CBK261811] | 91% |
| O=C(Nc1cc2cccnc2c(Br)n1)Nc1ccc(F)cc1C(F)(F)F [CBK063287] | 88.8% |
| CC1(C)Cc2ccccc2C(NC(Cc2ccccc2)C(=O)O)=N1 (stereo not shown) [CBK262533] | 107% |
| COC(C)CN(C)C(=O)c1cc2cc(C)ccc2nc1C (stereo not shown) [CBK282036] | 86.5% |

| SMILES | viability at 28.5 h, 10 µM |
| --- | --- |
| CC(NC(=O)N(Cc1ccc(CN)cc1)Cc1cnc(-c2ccccc2)[nH]1)c1cccc2ccccc12 (stereo not shown) [CBK046149C] | 97.1% |
| COc1ccccc1NC(=O)c1ccc(-c2nnc(-c3ccccc3)o2)cc1 [CBK266533] | 107% |
| N=C(N)CCCOc1ccccc1-c1ccccc1 [CBK058057] | 100% |
| CCOC(=O)N1CCN(CC(=O)Nc2cc3c(cc2C(C)=O)OCO3)CC1 [CBK266163] | 99.8% |
| COc1ncc(-c2cncc(Nc3cccc(C#N)c3)n2)c(OC)n1 [CBK066022] | 89.7% |
| CC(C)(C)OC(=O)N1CCN(c2ccnc(Cl)n2)CC1 [CBK002095] | 120% |
| Cc1cc(C)n(C(C)CC(=O)Nc2cccc(OC(C)C)c2)n1 (stereo not shown) [CBK281538] | 96.5% |
| Cc1ccc(C)c(NC(=O)CSc2nnc(CCc3ccccc3)n2C)c1 [CBK266365] | 93.7% |
| CC(C)c1cc(C(=O)N[C@@H]2CCOC[C@H]2Oc2ccc(CO)cc2)on1 [CBK306554] | 101% |
| COc1ccc(CCNC(=O)c2ccccc2N(C)S(C)(=O)=O)cc1 [CBK266833] | 104% |
| Cc1nc2ccccc2c(=O)n1CC(=O)NCc1ccccc1 [CBK072830] | 91.9% |
| CCCS(=O)(=O)n1c(=O)n(CCc2c[nH]c3ccccc23)c2ccccc21 [CBK106515] | 87.8% |
| CCN(CC)CC(C)C(O)(c1ccc(Cl)cc1)c1ccc(Cl)cc1 (stereo not shown) [CBK012146C] | 103% |
| CC(C)(C)OC(=O)N1CCC[C@@H]([C@H](O)c2nccs2)C1 [CBK284283] | 81% |
| CC(C)(C)OC(=O)NCCc1ccc(Nc2cc(-c3ccc4c(c3)OCO4)ncn2)cc1 [CBK090957] | 92.5% |
| CC(C)CCN[C@H]1CO[C@H]2[C@@H]1OC[C@@H]2n1nnnc1-c1ccccc1 [CBK289537] | 88.1% |
| C#CCNS(=O)(=O)c1cccc(C(=O)NCC2CCCN(C(C)C)C2)c1 (stereo not shown) [CBK305981] | 109% |
| Cn1cnnc1CNC(=O)N1CCN(Cc2cccs2)CC1 [CBK305045] | 86.3% |
| O=C1N(c2cccc(Cl)c2)Cc2nc(=O)[nH]n21 [CBK288430] | 85.1% |
| O=C1c2ccccc2C(=O)N1Cc1ccc(S(=O)(=O)NCc2ccc3c(c2)OCO3)cc1 [CBK264180] | 98.3% |
| Cc1ccc(-c2nn(CCC#N)cc2C(=O)N2CCOCC2)cc1 [CBK305939] | 96.2% |
| CSc1nc(C#N)c(N)c(SC2C=CCCC2)n1 (stereo not shown) [CBK021817] | 89.4% |

| SMILES | viability at 28.5 h, 10 µM |
| --- | --- |
| NS(=O)(=O)c1ccc(NC(=O)/C=C/c2cccc([N+](=O)[O-])c2)cc1 [CBK261616] | 99.5% |
| O=C(CSCc1ccc(Br)cc1)NCC1CCCO1 (stereo not shown) [CBK268506] | 87.3% |
| COc1cncc(-c2cc(NC3CCCCC3)ncn2)c1 [CBK090903] | 96.5% |
| COc1ccc(/C(C)=N/NC(=N)SC2CC(=O)N(c3ccc(C(=O)O)cc3)C2=O)cc1F (stereo not shown) [CBK262805] | 107% |
| CCOC(=O)CN1CCCN(c2c(F)cc(C#N)cc2F)CC1 [CBK304148] | 86.9% |
| N#Cc1ccnc(N2CCC3(CCCN(CC4CCCCC4)C3=O)C2)c1 (stereo not shown) [CBK306561] | 96.9% |
| CCCN1CCC(CNC(=O)c2cc(C3CC3)nn2C)CC1 [CBK282536] | 101% |
| Cc1ccnc2nc(C(=O)OCC(=O)Nc3ccc4c(c3)CCC4)nn12 [CBK305853] | 82.1% |
| O=C(COc1ccc(F)cc1)N1CCCC1c1cccc(Cc2ccccc2)n1 (stereo not shown) [CBK286214] | 105% |
| CCNC(=O)N[C@@H]1C=C[C@@H](c2c(C)nn(CCC#N)c2C)C1 [CBK289171] | 111% |
| O=[N+]([O-])c1ccccc1NCCNS(=O)(=O)c1ccccc1 [CBK263552] | 89% |
| COc1ccc(-c2c[nH]c([C@@H]3COCCN3Cc3csnn3)n2)cc1 [CBK289297] | 97.5% |
| Cn1c(=O)c2c(ncn2Cc2noc(-c3ccoc3)n2)n(C)c1=O [CBK304945] | 86.3% |
| Cc1ccc(N2C(=O)CC(Sc3ncccc3C(=O)O)C2=O)c(C)c1 (stereo not shown) [CBK269377] | 91.9% |
| CC(=O)Nc1ccc(S(=O)(=O)N2CCN(c3ccc(C(F)(F)F)cc3[N+](=O)[O-])CC2)cc1 [CBK264293] | 93.9% |
| COc1ccc(C(=O)Nc2nc(-c3ccc(OC)cc3)cs2)cc1 [CBK287325] | 99.2% |
| Cc1cc(COc2nc3ccccc3nc2N2CCCC2C(=O)OC(C)(C)C)no1 (stereo not shown) [CBK173753] | 85.8% |
| COc1ccc(C(C)C)cc1-c1cnc(N)c(Nc2ccc3[nH]ccc3c2)n1 [CBK063827] | 97.1% |
| CC1(C)CC(NC(=O)c2cc3cccnc3[nH]2)CCO1 (stereo not shown) [CBK305467] | 82.3% |
| CCn1ncnc1CN1CCN(Cc2ccccc2CO)CC1 [CBK306717] | 88.1% |
| c1ccc(SCc2nc(-c3cccnc3)no2)cc1 [CBK266078] | 101% |
| COc1ccccc1NC(=O)NC(=O)C1CCN(CCc2cccs2)CC1 [CBK034912] | 87.5% |
